Calls of active or inactive are those of the source.
What was measured:
[1] = target: Nuclear receptor ROR-gamma (Homo sapiens, UniProt P51449); experiment: ROR modulator nuclear receptor reporter panel, late-stage follow-up, ROR modulator project, cell-based, luciferase reporter, panel member RORG (AID 2117)
[2] = target: Nuclear receptor ROR-alpha (Homo sapiens, UniProt P35398); experiment: ROR modulator nuclear receptor reporter panel, late-stage follow-up, ROR modulator project, cell-based, luciferase reporter, panel member RORA (AID 2117)
[3] = target: T1, Sphingosine 1-phosphate receptor 4 (Homo sapiens, UniProt O95977); experiment: Fluorescence dose response cell-based high throughput screening assay for agonists of the Sphingosine 1-Phosphate Receptor 4 (S1P4). [Related pubchem assays: 1509 (Primary screen.), 1523 (Confirmation screen in triplicates.)]; type: functional
T1 sequence (O95977 whole entry): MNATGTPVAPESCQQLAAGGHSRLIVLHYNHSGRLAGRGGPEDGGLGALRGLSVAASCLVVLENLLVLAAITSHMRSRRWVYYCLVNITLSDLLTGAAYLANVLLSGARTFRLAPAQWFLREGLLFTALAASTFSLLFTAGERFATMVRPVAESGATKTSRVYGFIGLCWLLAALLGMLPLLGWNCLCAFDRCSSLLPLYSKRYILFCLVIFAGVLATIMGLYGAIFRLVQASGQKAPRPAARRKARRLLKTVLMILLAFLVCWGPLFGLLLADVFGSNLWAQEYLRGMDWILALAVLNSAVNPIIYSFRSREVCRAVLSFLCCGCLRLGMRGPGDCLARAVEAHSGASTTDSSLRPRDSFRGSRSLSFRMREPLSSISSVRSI

[4] = target: Sphingosine 1-phosphate receptor 1 (Homo sapiens, UniProt P21453); experiment: Fluorescence-based counterscreen assay for S1P4 agonists: Cell-based dose response high throughput screening assay to identify agonists of the Sphingosine 1-Phosphate Receptor 1 (S1P1). [Related pubchem assays (depositor defined):AID1509, AID1523, AID1801, AID463107, AID463118, AID463119, AID463122, AID463123, AID463129, AID463225, AID504400, AID504460]; type: functional
[5] = target: G-protein coupled receptor 55 (Homo sapiens, UniProt Q9Y2T6); experiment: SAR Analysis of Selective Antagonists of GPR55 using an Image-Based Assay - Set 4. [Related pubchem assays (depositor defined):AID2013, AID2026]; type: functional;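 further: antagonism of response to 5 µM lysophosphatidylinositol agonist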
[6] = target: T2, G-protein coupled receptor 35 (Homo sapiens, UniProt Q9HC97); experiment: SAR analysis of Antagonists of the GPR35 Receptor using an Image-Based Assay - Set 6. [Related pubchem assays (depositor defined):AID2013, AID2026]; type: functional
Cannabinoid receptor 1 [7] = target: T3, Cannabinoid receptor 1 (Homo sapiens, UniProt P21554); experiment: SAR analysis of agonists of the Cannabinoid Receptor 1 using an Image-Based Assay - Set 4. [Related pubchem assays (depositor defined):AID2013, AID2026]; type: functional
Cannabinoid receptor 2 [8] = target: T4, Cannabinoid receptor 2 (Homo sapiens, UniProt P34972); experiment: SAR analysis of antagonists of the Cannabinoid Receptor 2 using an Image-Based Assay - Set 3. [Related pubchem assays (depositor defined):AID2013, AID2026]; type: functional
Cannabinoid receptor 2 [9] = target: T4, Cannabinoid receptor 2; experiment: SAR analysis of agonists of the Cannabinoid Receptor 2 using an Image-Based Assay - Set 3. [Related pubchem assays (depositor defined):AID2013, AID2026]; type: functional
Cannabinoid receptor 1 [10] = target: T3, Cannabinoid receptor 1; experiment: SAR analysis of antagonists of the Cannabinoid Receptor 1 using an Image-Based Assay - Set 4. [Related pubchem assays (depositor defined):AID2013, AID2026]; type: functional
[11] = target: T2, G-protein coupled receptor 35; experiment: SAR analysis of Agonists of the GPR35 Receptor using an Image-Based Assay - Set 4. [Related pubchem assays (depositor defined):AID2013, AID2026]; type: functional
[12] = target: Peroxisome proliferator-activated receptor gamma/Nuclear receptor coactivator 3 (Homo sapiens, UniProt P37231); experiment: (§1) TR-FRET dose response biochemical High Throughput Screening assay for agonists of the steroid receptor coactivator 3 (SRC-3) recruitment by the peroxisome proliferator-activated receptor gamma (PPAR gamma): non-selective agonists. [Related pubchem assays: 1301 (Confirmation screen.), 1048 (Primary screen.)]; type: functional
[13] = target: Peroxisome proliferator-activated receptor gamma/Nuclear receptor coactivator 1 (Homo sapiens, UniProt P37231); experiment: as §1, with “1 (SRC-1)” for “3 (SRC-3)”, “assays (depositor defined):AID1300, AID1808, AID504735, AID631]” for “assays: 1301 (Confirmation screen.), 1048 (Primary screen.)]”; type: protein assay
[14] = target: Peroxisome proliferator-activated receptor gamma/Nuclear receptor coactivator 2 (Homo sapiens, UniProt P37231); experiment: TR-FRET dose response biochemical High Throughput Screening assay for agonists of the steroid receptor coactivator 2 (SRC-2) recruitment by the peroxisome proliferator-activated receptor gamma (PPAR gamma): non-selective agonists. [Related pubchem assays: 1297, 1032 ]; type: functional

T4 sequence (P34972 whole entry): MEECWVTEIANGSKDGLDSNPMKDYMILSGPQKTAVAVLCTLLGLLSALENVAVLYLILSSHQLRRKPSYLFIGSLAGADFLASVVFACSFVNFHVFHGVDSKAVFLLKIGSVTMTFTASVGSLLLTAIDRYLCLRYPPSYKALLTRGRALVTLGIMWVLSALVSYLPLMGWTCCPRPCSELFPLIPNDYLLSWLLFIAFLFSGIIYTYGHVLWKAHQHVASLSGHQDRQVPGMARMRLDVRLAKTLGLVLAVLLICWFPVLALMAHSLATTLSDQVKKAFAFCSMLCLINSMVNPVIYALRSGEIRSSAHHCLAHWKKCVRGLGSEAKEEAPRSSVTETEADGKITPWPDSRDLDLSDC
T2 sequence (Q9HC97 whole entry): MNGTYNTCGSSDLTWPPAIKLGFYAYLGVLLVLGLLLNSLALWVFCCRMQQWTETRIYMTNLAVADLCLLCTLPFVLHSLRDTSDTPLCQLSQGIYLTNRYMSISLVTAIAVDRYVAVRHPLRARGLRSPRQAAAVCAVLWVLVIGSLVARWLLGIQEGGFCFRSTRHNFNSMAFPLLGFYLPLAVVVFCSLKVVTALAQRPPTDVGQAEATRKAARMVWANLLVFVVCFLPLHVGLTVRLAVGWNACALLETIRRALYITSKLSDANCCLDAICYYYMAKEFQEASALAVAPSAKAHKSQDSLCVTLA
T3 sequence (P21554 whole entry): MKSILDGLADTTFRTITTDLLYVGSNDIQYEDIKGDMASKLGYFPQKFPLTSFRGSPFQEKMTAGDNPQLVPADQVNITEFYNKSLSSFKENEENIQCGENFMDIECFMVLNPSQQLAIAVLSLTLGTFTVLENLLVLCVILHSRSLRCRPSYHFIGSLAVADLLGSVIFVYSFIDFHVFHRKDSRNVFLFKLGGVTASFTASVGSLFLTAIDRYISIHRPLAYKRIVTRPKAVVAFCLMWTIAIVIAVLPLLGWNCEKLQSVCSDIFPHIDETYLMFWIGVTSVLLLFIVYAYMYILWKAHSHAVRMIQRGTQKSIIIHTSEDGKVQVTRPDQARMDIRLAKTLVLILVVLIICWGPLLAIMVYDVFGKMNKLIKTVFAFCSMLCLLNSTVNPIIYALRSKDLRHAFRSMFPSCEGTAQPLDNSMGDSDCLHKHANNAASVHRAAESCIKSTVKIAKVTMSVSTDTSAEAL
G-protein coupled receptor 55, sequence (Q9Y2T6 whole entry): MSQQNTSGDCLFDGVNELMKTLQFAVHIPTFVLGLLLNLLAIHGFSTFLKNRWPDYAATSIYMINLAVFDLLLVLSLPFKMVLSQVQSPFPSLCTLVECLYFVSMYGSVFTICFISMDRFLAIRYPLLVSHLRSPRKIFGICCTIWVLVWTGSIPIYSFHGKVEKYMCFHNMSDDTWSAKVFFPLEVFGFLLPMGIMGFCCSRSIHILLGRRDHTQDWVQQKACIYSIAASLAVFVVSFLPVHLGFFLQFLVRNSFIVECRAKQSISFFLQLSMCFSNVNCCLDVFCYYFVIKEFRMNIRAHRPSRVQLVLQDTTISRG
Nuclear receptor ROR-gamma, sequence (P51449 whole entry): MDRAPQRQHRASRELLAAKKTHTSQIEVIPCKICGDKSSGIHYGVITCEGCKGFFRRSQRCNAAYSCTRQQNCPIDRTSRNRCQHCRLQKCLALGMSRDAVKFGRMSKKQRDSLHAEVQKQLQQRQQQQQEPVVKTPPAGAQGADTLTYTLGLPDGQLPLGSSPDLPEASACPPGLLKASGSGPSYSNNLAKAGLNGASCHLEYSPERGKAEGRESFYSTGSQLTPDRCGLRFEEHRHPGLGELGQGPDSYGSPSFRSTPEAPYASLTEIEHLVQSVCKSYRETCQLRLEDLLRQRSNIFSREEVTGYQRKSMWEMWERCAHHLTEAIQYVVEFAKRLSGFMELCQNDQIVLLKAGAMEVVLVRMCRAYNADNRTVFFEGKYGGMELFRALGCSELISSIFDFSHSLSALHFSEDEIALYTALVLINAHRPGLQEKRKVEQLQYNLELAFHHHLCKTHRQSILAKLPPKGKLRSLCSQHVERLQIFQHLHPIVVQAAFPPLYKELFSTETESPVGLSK
Sphingosine 1-phosphate receptor 1, sequence (P21453 whole entry): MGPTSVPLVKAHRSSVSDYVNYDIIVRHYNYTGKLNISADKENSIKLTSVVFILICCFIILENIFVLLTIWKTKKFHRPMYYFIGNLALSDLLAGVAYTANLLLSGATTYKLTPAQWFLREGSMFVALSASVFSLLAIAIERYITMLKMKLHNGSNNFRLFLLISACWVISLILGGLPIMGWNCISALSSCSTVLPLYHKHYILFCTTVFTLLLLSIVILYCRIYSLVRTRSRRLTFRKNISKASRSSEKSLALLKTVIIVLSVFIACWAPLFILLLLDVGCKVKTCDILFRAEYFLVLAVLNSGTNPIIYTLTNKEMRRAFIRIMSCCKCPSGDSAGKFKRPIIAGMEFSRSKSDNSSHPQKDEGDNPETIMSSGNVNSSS
Nuclear receptor ROR-alpha, sequence (P35398 whole entry): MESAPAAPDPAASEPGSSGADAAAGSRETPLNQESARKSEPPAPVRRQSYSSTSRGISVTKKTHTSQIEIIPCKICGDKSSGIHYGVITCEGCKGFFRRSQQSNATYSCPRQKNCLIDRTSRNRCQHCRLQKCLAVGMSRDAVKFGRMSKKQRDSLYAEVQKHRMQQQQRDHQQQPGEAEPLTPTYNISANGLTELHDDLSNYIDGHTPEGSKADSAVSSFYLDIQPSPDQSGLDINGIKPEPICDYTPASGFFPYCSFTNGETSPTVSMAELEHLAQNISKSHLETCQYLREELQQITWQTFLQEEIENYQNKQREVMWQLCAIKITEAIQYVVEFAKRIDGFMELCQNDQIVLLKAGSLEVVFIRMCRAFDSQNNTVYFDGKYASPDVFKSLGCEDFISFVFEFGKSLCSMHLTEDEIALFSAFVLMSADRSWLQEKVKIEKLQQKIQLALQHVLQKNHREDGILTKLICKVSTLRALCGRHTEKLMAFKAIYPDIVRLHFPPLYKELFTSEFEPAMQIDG
Peroxisome proliferator-activated receptor gamma/Nuclear receptor coactivator 3, sequence (P37231 whole entry): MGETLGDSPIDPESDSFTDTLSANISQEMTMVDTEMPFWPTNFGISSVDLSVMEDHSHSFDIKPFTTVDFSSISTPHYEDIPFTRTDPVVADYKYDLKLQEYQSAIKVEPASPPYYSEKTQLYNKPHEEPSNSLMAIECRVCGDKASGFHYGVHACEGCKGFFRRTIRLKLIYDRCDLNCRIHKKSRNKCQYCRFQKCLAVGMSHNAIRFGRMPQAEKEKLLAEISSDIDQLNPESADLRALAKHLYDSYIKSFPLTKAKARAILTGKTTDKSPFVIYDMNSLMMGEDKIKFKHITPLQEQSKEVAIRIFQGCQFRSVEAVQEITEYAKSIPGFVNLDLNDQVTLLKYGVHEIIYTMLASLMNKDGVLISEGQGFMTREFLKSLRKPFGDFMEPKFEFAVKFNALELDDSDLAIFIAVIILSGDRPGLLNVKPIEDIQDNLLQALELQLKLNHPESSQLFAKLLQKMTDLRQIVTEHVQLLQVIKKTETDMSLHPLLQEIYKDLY
Peroxisome proliferator-activated receptor gamma/Nuclear receptor coactivator 3, sequence (Q9Y6Q9 whole entry, further chain): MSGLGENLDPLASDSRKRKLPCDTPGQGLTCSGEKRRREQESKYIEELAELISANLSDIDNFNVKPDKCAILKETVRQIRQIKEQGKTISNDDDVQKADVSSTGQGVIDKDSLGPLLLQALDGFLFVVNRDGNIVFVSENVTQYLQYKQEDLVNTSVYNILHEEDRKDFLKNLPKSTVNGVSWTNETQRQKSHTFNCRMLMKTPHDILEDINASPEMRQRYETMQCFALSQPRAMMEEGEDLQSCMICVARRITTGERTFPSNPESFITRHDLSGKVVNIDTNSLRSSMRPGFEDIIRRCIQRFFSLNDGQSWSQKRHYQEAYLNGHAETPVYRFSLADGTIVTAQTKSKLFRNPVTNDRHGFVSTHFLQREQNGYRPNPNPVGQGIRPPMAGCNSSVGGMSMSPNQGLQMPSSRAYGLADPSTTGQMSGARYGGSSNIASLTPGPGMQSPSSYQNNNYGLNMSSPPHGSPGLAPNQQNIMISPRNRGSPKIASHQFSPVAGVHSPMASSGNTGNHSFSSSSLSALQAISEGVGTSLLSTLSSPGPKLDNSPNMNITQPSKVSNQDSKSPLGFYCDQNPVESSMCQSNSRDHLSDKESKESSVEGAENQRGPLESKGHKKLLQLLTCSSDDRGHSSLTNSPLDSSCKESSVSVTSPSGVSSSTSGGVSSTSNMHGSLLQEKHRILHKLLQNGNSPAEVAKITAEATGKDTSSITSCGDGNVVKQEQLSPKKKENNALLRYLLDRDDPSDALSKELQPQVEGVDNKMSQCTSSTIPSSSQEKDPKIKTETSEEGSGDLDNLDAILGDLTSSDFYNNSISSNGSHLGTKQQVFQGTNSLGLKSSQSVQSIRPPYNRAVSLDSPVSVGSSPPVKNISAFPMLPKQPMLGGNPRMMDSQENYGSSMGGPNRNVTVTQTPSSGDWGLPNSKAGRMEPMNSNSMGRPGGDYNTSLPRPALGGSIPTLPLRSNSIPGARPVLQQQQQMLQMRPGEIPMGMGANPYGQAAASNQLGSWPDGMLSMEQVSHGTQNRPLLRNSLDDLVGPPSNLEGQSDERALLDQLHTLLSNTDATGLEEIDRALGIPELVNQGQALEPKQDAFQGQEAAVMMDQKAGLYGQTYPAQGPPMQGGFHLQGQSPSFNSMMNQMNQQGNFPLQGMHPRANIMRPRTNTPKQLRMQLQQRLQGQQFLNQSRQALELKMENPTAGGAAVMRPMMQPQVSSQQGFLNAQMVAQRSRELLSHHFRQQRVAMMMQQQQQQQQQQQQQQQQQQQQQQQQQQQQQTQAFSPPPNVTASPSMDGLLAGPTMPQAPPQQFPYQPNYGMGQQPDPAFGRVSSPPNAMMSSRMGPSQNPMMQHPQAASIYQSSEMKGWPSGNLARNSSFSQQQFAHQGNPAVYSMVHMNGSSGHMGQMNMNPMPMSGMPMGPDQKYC

O=S(=O)(Nc1ccc(C(O)(C(F)(F)F)C(F)(F)F)cc1)c1cccc2ccccc12
IC50 [1]: 1.94 µM (active)
IC50 [2]: 7.75 µM (active)

Cc1cccc(-n2c(=O)c(C#N)cc3c(=O)n4ccccc4nc32)c1
EC50 [3]: 4.06 µM (active)
EC50 [4]: 8.75 µM (active)

N=c1c(C(=O)NCc2ccccc2)cc2c(=O)n3ccccc3nc2n1C1CCCC1
IC50 [5]: 4.1 µM (active)
IC50 [6]: > 32 µM (inactive)
EC50 (Cannabinoid receptor 1 [7]): > 32 µM (inactive)
IC50 (Cannabinoid receptor 2 [8]): > 32 µM (inactive)
EC50 (Cannabinoid receptor 2 [9]): 1.31 µM (active)
IC50 (Cannabinoid receptor 1 [10]): 15.9 µM (inactive)
EC50 [11]: > 32 µM (inactive)

CC(C)C(OC(=O)c1cc2occc2n1C)C(=O)NCc1ccc2c(c1)OCO2 (centres undefined)
EC50 [12]: > 79.4 µM (not active)
EC50 [13]: > 79.4 µM (inactive)
EC50 [14]: > 79.4 µM (not active)
